Test results from paper PMC9775191, “A Subset Screen of the Compounds Australia Scaffold Library Identifies 7-Acylaminodibenzoxazepinones as Potent and Selective Hits for Anti-Giardia Drug Discovery” (Biomedicines, 2022).

System: G. duodenalis BRIS/91/HEPU/1279
Assay: Primary Giardia screen at 10 µM (live-cell imaging, automated counting)
Format: cell-based, Giardia duodenalis
Details: for % Inhibition n=1 24h / % Inhibition n=1 48h: first singlicate assay; for % Inhibition n=2 24h / % Inhibition n=2 48h: re-assessment
How it was run: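 Compounds were tested once each at 10 μM final (0.2% DMSO) in culture medium under 3% O2, 5% CO2 in N2. Growth was read at 24 and 48 h by live-cell imaging with automated counting, and inhibition expressed as percent growth versus 0.2% DMSO vehicle after media-only background subtraction.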

Row | Compound | % Inhibition n=1 48h | further results
1 | Cc1nc(N(C)C)cc(N2CCN(C(=O)Nc3cccc(C(F)(F)F)c3)CC2)n1 [SN00786482] | 55.4% | Average % Inhibition 24h: 10.6%; % Inhibition n=1 24h: 15.1%; % Inhibition n=2 24h: 6.1%; Average % Inhibition 48h: 29.2%; % Inhibition n=2 48h: 2.9%
2 | COc1cc(NC(=O)N2CCN(c3cc(N(C)C)nc(C)n3)CC2)cc(OC)c1 [SN00786504] | 55.1% | Average % Inhibition 24h: 4.9%; % Inhibition n=1 24h: 9.8%; % Inhibition n=2 24h: 0.0%; Average % Inhibition 48h: 27.5%; % Inhibition n=2 48h: 0.0%
3 | CCOC(=O)Cn1c(=O)n(-c2ccccc2)c(=O)c2cc3c(nc21)CC(C)(C)OC3 [SN00786524] | 18.7% | –
4 | CC1(C)Cc2nc3[nH]c(=O)n(Cc4ccco4)c(=O)c3cc2CO1 [SN00786536] | 7.3% | –
5 | O=C(Nc1ccc(N2CCn3c(nc4cc(Cl)ccc43)C2)cc1)NC1CCCCC1 [SN00786562] | 10.0% | –
6 | O=C(Cc1scnc1-c1cccs1)N1CCN(c2ccccn2)CC1 [SN00786601] | 0.0% | –
7 | O=S1(=O)C[C@H](NCc2ccccn2)[C@@H](S(=O)(=O)c2ccccc2)C1 [SN00786609] | 0.0% | –
8 | Cc1csc(-n2nc(C)c(CC(=O)N3CCN(c4ccccc4)CC3)c2O)n1 [SN00786646] | 34.3% | –
9 | Cc1nn(-c2nc(-c3ccccc3)cs2)c(O)c1CC(=O)N1CCN(c2ccc(F)cc2)CC1 [SN00786652] | 0.0% | –
10 | COc1ccc(NC(=O)c2cc(C(F)(F)F)n(C)n2)cc1 [SN00786766] | 0.0% | –
11 | Cc1ccc(C2=CC(c3ccccc3)n3nnnc3N2CC(=O)N2CCN(c3ccccc3)CC2)cc1 (stereo not shown) [SN00786799] | 34.8% | –
12 | NC(=O)C1=C(Nc2ccccc2)c2ccccc2S1(=O)=O [SN00786825] | 65.7% | Average % Inhibition 24h: 12.8%; % Inhibition n=1 24h: 25.7%; % Inhibition n=2 24h: 0.0%; Average % Inhibition 48h: 48.5%; % Inhibition n=2 48h: 31.3%
13 | Cc1ccc2oc(N3CCN(C(=O)C(C)c4ccccc4)CC3)nc2n1 (stereo not shown) [SN00786842] | 24.1% | –
14 | Cc1cccc(NC(=O)N2CCN(c3cc(C)nc(N4CCCC4)n3)CC2)c1 [SN00786874] | 49.3% | Average % Inhibition 24h: 3.5%; % Inhibition n=1 24h: 7.1%; % Inhibition n=2 24h: 0.0%; Average % Inhibition 48h: 39.9%; % Inhibition n=2 48h: 30.5%
15 | COc1ccc(NC(=O)N2CCN(c3cc(C)nc(N4CCOCC4)n3)CC2)cc1 [SN00786878] | 44.4% | –
16 | C=CCn1c(C)c(CC(=O)Nc2cc(F)ccc2C)c(=O)n2nc(-c3ccccc3)nc12 [SN00786890] | 40.6% | –
17 | O=C(Nc1ccccc1)c1cc(-c2cccs2)n(C2CCS(=O)(=O)C2)n1 (stereo not shown) [SN00786904] | 1.7% | –
18 | O=C(c1cccc(Br)c1)N1CCC(c2nc3ccccc3[nH]2)CC1 [SN00786922] | 0.0% | –
19 | COc1ccccc1OC(C)C(=O)N1N=C2CCCCC2C1(O)C(F)(F)F (stereo not shown) [SN00786959] | 13.1% | –
20 | CCn1nnc(NCc2ccc(-c3ccccc3)cc2)n1 [SN00786962] | 14.2% | –
21 | Cc1ccc2nc(-c3ccc(C)c(NC(=O)c4cccnc4)c3)[nH]c2c1 [SN00787045] | 8.2% | –

Row | Compound | % Inhibition n=1 48h | further results
22 | COc1ccccc1CCC(=O)N1CCN(c2ncnc3[nH]cnc23)CC1 [SN00787062] | 0.0% | –
23 | Cn1nc(C(=O)NCCCN2CCN(c3ccccc3)CC2)c2c1-c1ccccc1OC2 [SN00787244] | 0.0% | –
24 | O=C(Nc1nnc(S(=O)(=O)N2CCc3ccccc32)s1)c1ccccc1 [SN00787260] | 37.8% | –
25 | Cn1c(C(=O)NCc2ccc(F)cc2)cc2c(=O)n3ccccc3nc21 [SN00787284] | 0.0% | –
26 | CC1(C(=O)NCc2ccc(F)cc2)Cn2nc(-c3ccco3)cc2C(=O)N1Cc1ccccc1 (stereo not shown) [SN00787370] | 13.6% | –
27 | COc1ccc(N2C(=O)c3cc(-c4ccco4)nn3CC2(C)C(=O)NC(C)(C)C)cc1 (stereo not shown) [SN00787372] | 16.8% | –
28 | O=C(NCc1cccc(F)c1)C1CCCN(c2nc3ccccc3n3cccc23)C1 (stereo not shown) [SN00787408] | 0.0% | –
29 | CCn1cc2c(n1)-c1c(oc(C(=O)Nc3ccc(F)cc3)c1C)CC2 [SN00787412] | 6.9% | –
30 | Cc1c(C(=O)NCCCN2CCOCC2)oc2c1-c1nn(Cc3ccc(Cl)cc3)cc1CC2 [SN00787421] | 1.0% | –
31 | CC1(C(=O)NC2CCCCC2)Cn2c(cc3ccccc32)C(=O)N1Cc1ccco1 (stereo not shown) [SN00787436] | 0.0% | –
32 | O=C(Nc1cc(Cl)ccc1O)c1cc(-c2ccc(F)cc2)no1 [SN00787460] | 3.6% | –
33 | CC(C(=O)NC1CCCCCC1)n1c(=O)c2cccn2c2cccnc21 (stereo not shown) [SN00787599] | 8.7% | –
34 | O=C([C@H]1C[C@H]2CCCN2[C@@]12C(=O)Nc1ccccc12)N1CCN(c2ccccc2)CC1 [SN00787657] | 16.0% | –
35 | CC1CC(C)CN(CCCNC(=O)C2CC3CCCN3C23C(=O)Nc2ccccc23)C1 (stereo not shown) [SN00787674] | 38.8% | –
36 | CC1(C(=O)NC2CCCC2)Cn2c(ccc2-c2ccco2)C(=O)N1c1cccc(F)c1 (stereo not shown) [SN00787693] | 11.7% | –
37 | CC1(C(=O)NCc2ccccc2)Cn2c(ccc2-c2ccco2)C(=O)N1CCc1ccco1 (stereo not shown) [SN00787709] | 0.0% | –
38 | COc1ccc(-c2noc(CC(=O)N3CCN(c4ccccn4)CC3)n2)cc1 [SN00787724] | 23.4% | –
39 | Cc1ccc(-n2nnc(-c3nc(-c4ccc5c(c4)OCO5)no3)c2N)cc1 [SN00787754] | 0.0% | –
40 | CCCn1cc(S(=O)(=O)c2ccc(OC)cc2)c(=O)c2cc(F)c(N3CCC(C)CC3)cc21 [SN00787795] | 0.0% | –
41 | CCCn1cc(S(=O)(=O)c2ccc(Cl)cc2)c(=O)c2cc(F)c(N3CCOCC3)cc21 [SN00787800] | 0.0% | –
42 | COc1ccccc1N1CCN(C(=O)c2cc(C3CC3)n[nH]2)CC1 [SN00787811] | 0.0% | –

Row | Compound | % Inhibition n=1 48h | further results
43 | CCCCN(CC)CCNC(=O)C1=C(C)C(=O)OC12CCN(CC)CC2 [SN00787839] | 0.0% | –
44 | CC(=O)N1CCC2(CC1)OC(=O)C(C)=C2C(=O)NC1CC1 [SN00787857] | 0.0% | –
45 | CC1(C(=O)NC2CCCCCCC2)CN(S(C)(=O)=O)CC(=O)N1c1ccc(F)cc1 (stereo not shown) [SN00787900] | 11.9% | –
46 | CC1Cc2cc(S(=O)(=O)N3CCn4c3nc3ccccc34)ccc2N1C(=O)C1CCC1 (stereo not shown) [SN00788031] | 10.8% | –
47 | CC1CC(C)CN(C(=O)Cn2cnc3c(nc4n3CCCCC4)c2=O)C1 (stereo not shown) [SN00788055] | 0.0% | –
48 | Cc1ccc(NC(=O)Cn2nnc(-c3nc(-c4ccccc4)no3)c2N)cc1C [SN00788081] | 2.5% | –
49 | Cc1ccc(NC(=O)Cn2nnc(-c3nc(-c4ccncc4)no3)c2N)cc1 [SN00788097] | 7.5% | –
50 | CCC1Cn2c(C(=O)NCCN(C)C3CCCCC3)cc3cccc(c32)O1 (stereo not shown) [SN00788158] | 54.5% | Average % Inhibition 24h: 13.9%; % Inhibition n=1 24h: 11.2%; % Inhibition n=2 24h: 16.5%; Average % Inhibition 48h: 53.7%; % Inhibition n=2 48h: 52.9%
51 | COc1cccc(Nc2nc(N3CCN(c4ccccc4)CC3)nc3c2cnn3C)c1 [SN00788187] | 5.8% | –
52 | COc1ccc(-c2cc(C(=O)N(C)Cc3ccco3)[nH]n2)cc1 [SN00788220] | 44.3% | –
53 | CCN(Cc1ccccc1)C(=O)c1cc(-c2ccccc2)n[nH]1 [SN00788230] | 36.1% | –
54 | CN1C(=O)c2cc(C(=O)NCCCc3ccccc3)nn2CC1(C)C(=O)NC1CCCC1 (stereo not shown) [SN00788236] | 0.6% | –
55 | O=C(NCCCN1CCN(c2ccccc2)CC1)c1noc2c1CCCCC2 [SN00788368] | 9.7% | –
56 | Cc1oc2ncn(C(C)c3ccccc3)c(=O)c2c1C(=O)Nc1ccc(S(N)(=O)=O)nc1 (stereo not shown) [SN00788415] | 0.0% | –
57 | Cc1ccccc1NC(=O)c1c(C)oc2ncnc(N3CCCCC3)c12 [SN00788425] | 15.9% | –
58 | Cc1nc(N2CCOCC2)c2c(C(=O)N3CCCC3)c(C)oc2n1 [SN00788445] | 0.0% | –
59 | CCCCN(CCCC)S(=O)(=O)c1ccc2c(c1)CCCC(=O)N2 [SN00788526] | 27.2% | –
60 | O=C1CCCc2cc(S(=O)(=O)N3CCN(c4ccccc4)CC3)ccc2N1 [SN00788529] | 19.1% | –
61 | Cc1noc2ncnc(N3CCCC(C(=O)NC4CCCCCC4)C3)c12 (stereo not shown) [SN00788598] | 0.0% | –
62 | Cc1noc2ncnc(N3CCCC(C(=O)N4CCCCCC4)C3)c12 (stereo not shown) [SN00788609] | 0.0% | –
63 | COc1cccc(C(=O)n2nc(-c3cccnc3)nc2NCc2ccc(C)cc2)c1 [SN00788624] | 24.5% | –
